Data on three compounds can be found in US20210171589A1, “TRUNCATED CARTILAGE-HOMING PEPTIDES AND PEPTIDE COMPLEXES AND METHODS OF USE THEREOF” (BLAZE BIOSCIENCE, INC., priority 2018, published 2021).

One data set deals with cartilage and kidneys. Kind of data set: Peptide homing with intact kidneys (autoradiography). Type of data set: in vivo, Female Harlan athymic nude mice. On the procedure:
Additionally, the peptide can be retained in cartilage for hours after treatment. The SEQ ID NO: 150 peptide was radiolabeled as in EXAMPLE 4 and 100 nmol of peptide was injected into a mouse with intact kidneys.
This example describes a dosing scheme for administering peptides to mice without kidney ligation. The peptide administered had the sequence of SEQ ID NO: 150. The peptide was radiolabeled by methylating lysines and the N-terminus, so the actual binding agent may contain methyl or dimethyl lysine(s) and a methylated or dimethylated amino terminus.
A target dosage of 100 nmol of each peptide carrying 10-25 μCi of ^14C was administered to Female Harlan athymic nude mice by a tail vein injection. Each peptide was allowed to freely circulate within the animal for either 4 hours or 24 hours before the animals were euthanized and sectioned.
This example illustrates peptide homing to cartilage in animals with intact kidneys. At the end of the 4 hour or 24 hour dosing periods in EXAMPLE 6, mice were frozen in a hexane/dry ice bath and then frozen in a block of carboxymethylcellulose. […]

The test system of the next data set is cartilage. Put plainly: Peptide homing with kidney ligation (autoradiography). Type of data set: in vivo, Female Harlan athymic nude mice. Particulars: mice with ligated kidneys, 50-100 nmol via tail vein injection. As to the method: This example describes a dosing scheme for administering peptides to mice in conjunction with kidney ligation. Different dosages of the peptides of SEQ ID NO:149 and SEQ ID NO:150 were administered to Female Harlan athymic nude mice, weighing 20 g-25 g, via tail vein injection (n=2 mice per peptide). The experiment was done in duplicates. The kidneys were ligated to prevent renal filtration of the peptides. Each peptide was radiolabeled by methylating lysines and the N-terminus, so the actual binding agent may contain methyl or dimethyl lysine(s) and a methylated or dimethylated amino terminus.
A target dosage of 50-100 nmol of each peptide carrying 10-25 uCi of ^14C was administered to Female Harlan athymic nude mice while anesthetized. Each peptide was allowed to freely circulate within the animal before the animals were euthanized and sectioned.
This example illustrates peptide homing to cartilage of mice with kidneys that were ligated prior to peptide administration. At the end of the dosing period in EXAMPLE 4, mice were frozen in a hexane/dry ice bath and then frozen in a block of carboxymethylcellulose. […]

In another data set the target is porcine trypsin (Sus scrofa, UniProt P00761). Put plainly: Peptide resistance to proteolytic digestion by trypsin. Format: in vitro ADME. Particulars: 50 U of porcine trypsin in PBS, 30 minutes at 37° C. As to the method: (§1) This example illustrates peptide stability under various stress conditions such as high temperature, low pH, reducing agents, and proteases. To determine resistance to high temperatures, cystine-dense peptides (CDPs) were incubated at 0.5 mM in PBS at 75° C. or 100° C. for 1 h and pelleted, and the supernatant was analyzed with reversed-phase chromatography (RPC). To determine resistance to proteolytic digestion, CDPs were mixed with 50 U of porcine pepsin, in simulated gastric fluid at pH 1.0, or 50 U of porcine trypsin in PBS, incubated for 30 minutes at 37° C. and analyzed with RPC. Oxidized and reduced forms (prepared through addition 10 mM DTT) were compared. Circular Dichroism spectroscopy was used in order to measure the secondary structure of peptides with a Jasco J-720W spectropolarimeter in a cell with a 1.0-mm path length, and CDPs were diluted into 20 mM phosphate buffer, pH 7.4, at a concentration of 15-25 μM. These conditions were expected to denature or degrade conventional globular proteins and many peptides. In TABLE 10, “high” resistance indicated a high amount of the peptide remained or was retained as unmodified under the given experimental conditions and “low” resistance indicated a low amount of the peptide remained or was retained unmodified under the given experimental conditions. […]

Another data set deals with porcine pepsin (Sus scrofa, UniProt P00791). Put plainly: Peptide resistance to proteolytic digestion by pepsin. Format: in vitro ADME. The note with it: 50 U of porcine pepsin in simulated gastric fluid at pH 1.0, 30 minutes at 37° C. As to the method:
as §1

Data set [1] has as its system cartilage (intervertebral discs, knee joints). Put plainly: Whole body autoradiography of radiolabeled cartilage homing peptides. Format: in vivo, Female Harlan athymic nude mice. As to the method:
This example illustrates peptide homing to cartilage mice 5 minutes to 48 hours after administration of a radiolabeled peptide. Signal from the radiolabeled peptides was found in all types of cartilage at each time point examined. Each peptide was radiolabeled by methylating […] as described in EXAMPLE 2. As such, the peptide may contain methyl or dimethyl lysines and a methylated or dimethlyated amino terminus. A dose of 100 nmol radiolabeled peptide was administered via tail vein injection in Female Harlan athymic nude mice, weighing 20-25 g. The experiment was done in duplicate (n=2 animals per group). Each radiolabeled peptide was allowed to freely circulate within the animal for the described time period before the animals were euthanized and sectioned.
Whole body autoradiography (WBA) sagittal sectioning was performed as follows. At the end of the dosing period, mice were frozen in a hexane/dry ice bath and then embedded in a frozen block of carboxymethylcellulose. […] Sections were allowed to dessicate in a freezer prior to imaging. For the autoradiography imaging, tape mounted thin sections were freeze dried and radioactive samples were exposed to phosphoimager plates. These plates were developed and the signal (densitometry) from each organ was normalized to the signal found in the cardiac blood of each animal. A signal in tissue darker than the signal expected from blood in that tissue indicates accumulation in a region, tissue, structure, or cell.

Data set [2] has the same test system. The description is as above. Format: in vivo, Female Harlan athymic nude mice. The source holds these as a separate data set.

Bridge positions count the residues as written; N and C are the ends. Peptide text beside a SMILES is read from it.

Sequence of porcine pepsin (P00791 60-385): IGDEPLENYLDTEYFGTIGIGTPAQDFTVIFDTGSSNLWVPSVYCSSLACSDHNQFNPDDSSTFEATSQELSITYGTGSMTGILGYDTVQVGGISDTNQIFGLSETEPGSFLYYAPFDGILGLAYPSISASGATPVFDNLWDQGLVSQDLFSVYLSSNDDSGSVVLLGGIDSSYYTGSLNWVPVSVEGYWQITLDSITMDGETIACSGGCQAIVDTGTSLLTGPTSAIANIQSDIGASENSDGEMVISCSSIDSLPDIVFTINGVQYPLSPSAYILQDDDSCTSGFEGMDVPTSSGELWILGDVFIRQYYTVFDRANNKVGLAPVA
Sequence of porcine trypsin (P00761 9-231): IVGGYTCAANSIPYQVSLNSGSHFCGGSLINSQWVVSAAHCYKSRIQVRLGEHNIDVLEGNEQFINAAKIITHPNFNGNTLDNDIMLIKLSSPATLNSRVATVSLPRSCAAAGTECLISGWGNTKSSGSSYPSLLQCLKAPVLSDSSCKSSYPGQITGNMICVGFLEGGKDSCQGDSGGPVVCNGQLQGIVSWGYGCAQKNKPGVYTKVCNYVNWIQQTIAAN

As for `CC[C@H](C)[C@@H]1NC(=O)[C@@H]2CSSC[C@H](NC(=O)[C@H](CCCCN)NC(=O)[C@@H](NC(=O)[C@H](CC(N)=O)NC(=O)[C@@H](NC(=O)[C@@H]3CCCN3C(=O)[C@@H](NC(=O)CNC(=O)[C@H](CO)NC(=O)CN)C(C)C)[C@@H](C)CC)C(C)C)C(=O)N[C@@H](CCCNC(=N)N)C(=O)NCC(=O)N[C@@H](CO)C(=O)N[C@@H](CCCNC(=N)N)C(=O)N[C@@H](CC(=O)O)C(=O)N[C@H]3CSSC[C@H](NC(=O)[C@H](CCCCN)NC(=O)[C@H](CO)NC(=O)[C@H](CC(N)=O)NC1=O)C(=O)N[C@@H](Cc1c[nH]cn1)C(=O)N[C@H](C(=O)N[C@H](C(=O)N1CCC[C@H]1C(=O)O)[C@@H](C)O)CSSC[C@H](NC(=O)[C@@H]1CCCN1C(=O)[C@H](CC(=O)O)NC(=O)[C@H](CC(C)C)NC3=O)C(=O)N[C@@H](CCCCN)C(=O)N[C@@H](CCCCN)C(=O)N[C@@H](C)C(=O)NCC(=O)N[C@@H](CCSC)C(=O)N[C@@H](CCCNC(=N)N)C(=O)N[C@@H](Cc1ccccc1)C(=O)NCC(=O)N[C@@H](CCCCN)C(=O)N2` [SEQ ID NO: 150] (H-GSGVPINVKCRGSRDCLDPCKKAGMRFGKCINSKCHCTP-OH; disulfide 10-30, 16-35, 20-37; N-terminus and C-terminus assumed), the “Peptide distribution (14C signal)” value with cartilage and kidneys (mice with intact kidneys, 100 nmol via tail vein injection, 4 hours or 24 hours) was “distribution in joint and other cartilage as well as kidneys”; in the data set with cartilage, “distribution in joint and other cartilage”. Moreover, in the data set on cartilage and kidneys (mouse with intact kidneys, 100 nmol, 24 hours after administration), the “Retention and tissue distribution in cartilage” value was “retention of and the tissue distribution in the cartilage”.

As to `CC[C@H](C)[C@@H]1NC(=O)[C@@H]2CSSC[C@H](NC(=O)[C@H](CCCCN)NC(=O)[C@@H](NC(=O)[C@H](CC(N)=O)NC(=O)[C@@H](NC(=O)[C@@H]3CCCN3C(=O)[C@@H](NC(=O)CNC(=O)[C@H](CO)NC(=O)CN)C(C)C)[C@@H](C)CC)C(C)C)C(=O)N[C@@H](CCCNC(=N)N)C(=O)NCC(=O)N[C@@H](CO)C(=O)N[C@@H](CCCNC(=N)N)C(=O)N[C@@H](CC(=O)O)C(=O)N[C@H]3CSSC[C@H](NC(=O)[C@H](CCCCN)NC(=O)[C@H](CO)NC(=O)[C@H](CC(N)=O)NC1=O)C(=O)N[C@@H](Cc1c[nH]cn1)C(=O)N[C@H](C(=O)N[C@H](C(=O)N1CCC[C@H]1C(=O)O)[C@@H](C)O)CSSC[C@H](NC(=O)[C@@H]1CCCN1C(=O)[C@H](CC(=O)O)NC(=O)[C@H](CC(C)C)NC3=O)C(=O)N[C@@H](CCCCN)C(=O)N[C@@H](CCCCN)C(=O)N[C@@H](C)C(=O)NCC(=O)N[C@@H](CCSC)C(=O)N[C@@H](CCCNC(=N)N)C(=O)N[C@@H](Cc1ccccc1)C(=O)NCC(=O)N[C@@H](CCCCN)C(=O)N2` [compound 150] (H-GSGVPINVKCRGSRDCLDPCKKAGMRFGKCINSKCHCTP-OH; disulfide 10-30, 16-35, 20-37; N-terminus and C-terminus assumed), the “Resistance to Trypsin” value at porcine trypsin is recorded as “High”. Further, the “Resistance to Pepsin” value on porcine pepsin is reported as “High”.

As to “GSGVPINVRSRGSRDSLDPSRRAGMRFGRSINSRSHSTP [SEQ ID NO: 218, reference compound]”, the “Signal of radiolabeled peptide in IVD as a Percentage of Blood” value in data set [1] (3 hr, Intact Kidneys) is 177 Percentage of Blood; in data set [2] (3 hr, Ligated Kidneys), 117 Percentage of Blood; in data set [2] (24 hr, Intact Kidneys), 104 Percentage of Blood. Moreover, the “Homing of radiolabeled peptide to cartilage” value in data set [1] (mice, 100 nmol via tail vein injection, 5 minutes to 48 hours) is given as “homed to cartilage to a much lesser extent”.
